According to patent US20260317319A1, “NOVEL ERGOLINES AND METHODS OF TREATING MOOD DISORDERS” (Gilgamesh Pharma Inc., priority 2023, published 2026):

System: Sprague Dawley rats
Assay: Forced swim test (FST) in rats
Type: in vivo, rat
Conditions: rat FST, dose 20 mg/kg, positive control; average of 3 independent experiments
Protocol: Compound 1 induced antidepressant-like effects in the forced swim test (FST) in rats with a 23.5-h pre-treatment time (FIG. 2).
Animals. Male Sprague Dawley rats, aged 9-10 weeks, were used in this experiment. Animals were housed in groups of 2 under controlled temperature (22±3° C.) and relative humidity (30-70%) conditions, with 12-hour light/dark cycles, and with ad libitum food and water. This study was carried out in strict accordance with the requirements of the Committee for the Purpose of Control and Supervision of Experiments on Animals (CPCSEA), India. All efforts were made to minimize suffering.
Forced Swim Test (FST). […] Rats were handled for about 2 min daily for the 5 days prior to the beginning of the experimental procedure. On the first day of the experiment (i.e., Day 0), post randomization, training swim sessions (Swim 1) were conducted between 12:00 and 18:00 h with all animals by placing rats in individual glass cylinders (46 cm tall×20 cm in diameter) containing 23-25° C. water 30 cm deep for 15 minutes. At the conclusion of Swim 1, animals were dried with paper towels, placed in heated drying cages for 15 minutes, and then returned to their home cages. Animals were then administered the appropriate drug or vehicle treatment(s), as described above. For clarity, a compound administration time of 23.5 h before Swim 2 means 0.5 h after the start of Swim 1 and 0.25 h after the completion of Swim 1 (i.e., immediately after return to the home cage). On Day 1 (i.e., 24 h after start of Swim 1), animals performed the test swim (Swim 2) for a period of 5 min but otherwise under the same conditions as Swim 1. During all swim sessions, the water was changed between each animal.
Behavioral scoring was conducted by observers who were blind to the treatment groups. Animals were continuously observed during Swim 2 and the total time spent engaging in the following behaviors was recorded: immobile, swimming, and climbing. A rat was judged to be immobile when it remained floating in the water without struggling and was making only those movements necessary to keep its head above water. A rat was judged to be swimming when it made active swimming motions, more than necessary to merely maintain its head above water (e.g., moving around in the cylinder). A rat was judged to be climbing when it made active movements with its forepaws in and out of the water, usually directed against the walls.
Statistical Analysis. The data points shown represent the mean±standard error of the mean (SEM). Analysis was performed using GraphPad Prism 6. Comparisons between groups were performed using the one-way analysis of variance (ANOVA), followed by Dunnett's test for comparisons to vehicle.
Additional disclosed compounds were tested in the forced swim test (FST) in rats according to the procedure described in Example 58 (compounds 18 and 19 administered in 10% DMSO in saline).

## CNCCCN1c2ccccc2CCc2ccccc21 [Desipramine, desipramine, reference compound]
  Time Immobile: 60.93 s
